Tests used:
[1] = system: cattle; assay: Reduction of carbon dioxide gas emissions from cattle fed lubabegron for 14 days in individual chambers; format: in vivo
Text: Prepare lubabegron (L) as 4.5 g/lb of Type A Medicated Article. In an appropriate facility having cattle chambers or rooms for individual animals (chambers), test ten cycles of twelve cattle each, each cycle representing all dose (0, 1.25, 5, and 20 g/ton) with a mixture of genders (steer and heifer).
Upon receipt of the cattle, allocate the cattle to chambers to acclimate for 7 days. After the acclimation phase, for 14 days orally treat via feed one fourth of the cattle allocated to chambers L 0 g/ton/day; one fourth 1.25 g/ton/day; 5 g/ton/day; and 20 g/ton/day (100% dry matter basis). Provide feed and water ad libitum. On day 14, collect body weight and load cattle for transport to the slaughter facility. On day 15, slaughter the cattle and evaluate the carcass. During the study, monitor and collect carbon dioxide gas emissions data. […] Using the process described above, the following results are achieved.

[2] = system: cattle; assay: Reduction of ammonia gas emissions from cattle fed lubabegron for 91 days in cattle pen enclosures; format: in vivo
Text: Prepare lubabegron (L) as 4.5 g/lb of Type A Medicated Article. In a facility having at least eight cattle pen enclosures (CPEs), test two cycles of cattle, each cycle representing all dose (0, 1.25, 5, and 20 g/ton) and gender (steer and heifer) combinations. For the purpose of this example, a cycle refers to a group of 112 animals housed concurrently. Within each cycle, there are 2 cohorts of animals (56 animals per cohort). A cohort refers to a group of same gender animals representing each of the 4 doses. Up to 4 cycles are used to provide a total of 4 cohorts per gender.
Upon receipt of the cattle, allocate the cattle to CPEs to acclimate for 7 days. After the acclimation phase, for 91 days orally treat via feed one fourth of the cattle allocated to CPEs L 0 g/ton/day; one fourth 1.25 g/ton/day; 5 g/ton/day; and 20 g/ton/day (100% dry matter basis). Provide feed and water ad libitum. On day 91, collect body weight and load cattle for transport to the slaughter facility. On day 92, slaughter the cattle and evaluate the carcass. During the study, monitor and collect ammonia gas emissions data. Measure the ammonia emissions over the treatment period and normalize by body weight (BW) for the period (Days 0-7, 0-14, 0-28, 0-56, and 0-91) and hot carcass weight (HCW) (Days 0-91) (g of gas/animal; g of gas/lb of live BW; g of gas/lb of HCW). Using the process described above, the following results are achieved.

CC(C)(Cc1ccc(Oc2ncccc2C#N)cc1)NC[C@H](O)COc1ccccc1-c1cccs1 [lubabegron]
Reduction, as compared to control, g of CO2 gas/animal ([1]; 1.25 g/ton in feed, Day 0-7): (0.2%) | Reduction, as compared to control, g of CO2 gas/lb of live BW ([1]; 1.25 g/ton in feed, Day 0-7): 0% | Reduction, as compared to control, g of CO2 gas/animal ([1]; 1.25 g/ton in feed, Day 0-14): (3%) | Reduction, as compared to control, g of CO2 gas/lb of HCW ([1]; 1.25 g/ton in feed, Day 0-14): 4% | Reduction, as compared to control, g of CO2 gas/lb of live BW ([1]; 1.25 g/ton in feed, Day 0-14): 2% | Reduction, as compared to control, g of CO2 gas/animal ([1]; 1.25 g/ton in feed, Day 7-14): (5%) | Reduction, as compared to control, g of CO2 gas/lb of HCW ([1]; 1.25 g/ton in feed, Day 7-14): 6% | Reduction, as compared to control, g of CO2 gas/lb of live BW ([1]; 1.25 g/ton in feed, Day 7-14): 5% | Reduction, as compared to control, g of CO2 gas/animal ([1]; 5 g/ton in feed, Day 0-7): (4%) | Reduction, as compared to control, g of CO2 gas/lb of live BW ([1]; 5 g/ton in feed, Day 0-7): 3% | Reduction, as compared to control, g of CO2 gas/animal ([1]; 5 g/ton in feed, Day 0-14): (7%) | Reduction, as compared to control, g of CO2 gas/lb of HCW ([1]; 5 g/ton in feed, Day 0-14): 7% | Reduction, as compared to control, g of CO2 gas/lb of live BW ([1]; 5 g/ton in feed, Day 0-14): 6% | Reduction, as compared to control, g of CO2 gas/animal ([1]; 5 g/ton in feed, Day 7-14): (10%) | Reduction, as compared to control, g of CO2 gas/lb of HCW ([1]; 5 g/ton in feed, Day 7-14): 10% | Reduction, as compared to control, g of CO2 gas/lb of live BW ([1]; 5 g/ton in feed, Day 7-14): 9% | Reduction, as compared to control, g of CO2 gas/animal ([1]; 20 g/ton in feed, Day 0-7): (4%) | Reduction, as compared to control, g of CO2 gas/lb of live BW ([1]; 20 g/ton in feed, Day 0-7): 4% | Reduction, as compared to control, g of CO2 gas/animal ([1]; 20 g/ton in feed, Day 0-14): (7%) | Reduction, as compared to control, g of CO2 gas/lb of HCW ([1]; 20 g/ton in feed, Day 0-14): 7% | Reduction, as compared to control, g of CO2 gas/lb of live BW ([1]; 20 g/ton in feed, Day 0-14): 6% | Reduction, as compared to control, g of CO2 gas/animal ([1]; 20 g/ton in feed, Day 7-14): (9%) | Reduction, as compared to control, g of CO2 gas/lb of HCW ([1]; 20 g/ton in feed, Day 7-14): 10% | Reduction, as compared to control, g of CO2 gas/lb of live BW ([1]; 20 g/ton in feed, Day 7-14): 9% | Reduction, as compared to control, g of NH3 gas/animal ([2]; 1.25 g/ton in feed, Day 0-7): 5% (5%) | Reduction, as compared to control, g of NH3 gas/lb of live BW ([2]; 1.25 g/ton in feed, Day 0-7): 5% (5%) | Reduction, as compared to control, g of NH3 gas/animal ([2]; 1.25 g/ton in feed, Day 0-14): 12% | Reduction, as compared to control, g of NH3 gas/lb of live BW ([2]; 1.25 g/ton in feed, Day 0-14): 14% | Reduction, as compared to control, g of NH3 gas/animal ([2]; 1.25 g/ton in feed, Day 0-28): 15% | Reduction, as compared to control, g of NH3 gas/lb of live BW ([2]; 1.25 g/ton in feed, Day 0-28): 16% | Reduction, as compared to control, g of NH3 gas/animal ([2]; 1.25 g/ton in feed, Day 0-56): 11% | Reduction, as compared to control, g of NH3 gas/lb of live BW ([2]; 1.25 g/ton in feed, Day 0-56): 13% | Reduction, as compared to control, g of NH3 gas/animal ([2]; 1.25 g/ton in feed, Day 0-91): 9% | Reduction, as compared to control, g of NH3 gas/lb of HCW ([2]; 1.25 g/ton in feed, Day 0-91): 13% | Reduction, as compared to control, g of NH3 gas/lb of live BW ([2]; 1.25 g/ton in feed, Day 0-91): 11% | Reduction, as compared to control, g of NH3 gas/animal ([2]; 5 g/ton in feed, Day 0-7): 7% | Reduction, as compared to control, g of NH3 gas/lb of live BW ([2]; 5 g/ton in feed, Day 0-7): 8% | Reduction, as compared to control, g of NH3 gas/animal ([2]; 5 g/ton in feed, Day 0-14): 16% | Reduction, as compared to control, g of NH3 gas/lb of live BW ([2]; 5 g/ton in feed, Day 0-14): 17% | Reduction, as compared to control, g of NH3 gas/animal ([2]; 5 g/ton in feed, Day 0-28): 20% | Reduction, as compared to control, g of NH3 gas/lb of live BW ([2]; 5 g/ton in feed, Day 0-28): 21% | Reduction, as compared to control, g of NH3 gas/animal ([2]; 5 g/ton in feed, Day 0-56): 16% | Reduction, as compared to control, g of NH3 gas/lb of live BW ([2]; 5 g/ton in feed, Day 0-56): 18% | Reduction, as compared to control, g of NH3 gas/animal ([2]; 5 g/ton in feed, Day 0-91): 12% | Reduction, as compared to control, g of NH3 gas/lb of HCW ([2]; 5 g/ton in feed, Day 0-91): 16% | Reduction, as compared to control, g of NH3 gas/lb of live BW ([2]; 5 g/ton in feed, Day 0-91): 14% | Reduction, as compared to control, g of NH3 gas/animal ([2]; 20 g/ton in feed, Day 0-7): 21% | Reduction, as compared to control, g of NH3 gas/lb of live BW ([2]; 20 g/ton in feed, Day 0-7): 22% | Reduction, as compared to control, g of NH3 gas/animal ([2]; 20 g/ton in feed, Day 0-14): 27% (27%) | Reduction, as compared to control, g of NH3 gas/lb of live BW ([2]; 20 g/ton in feed, Day 0-14): 27% (27%) | Reduction, as compared to control, g of NH3 gas/animal ([2]; 20 g/ton in feed, Day 0-28): 25% | Reduction, as compared to control, g of NH3 gas/lb of live BW ([2]; 20 g/ton in feed, Day 0-28): 26% | Reduction, as compared to control, g of NH3 gas/animal ([2]; 20 g/ton in feed, Day 0-56): 19% (19%) | Reduction, as compared to control, g of NH3 gas/lb of live BW ([2]; 20 g/ton in feed, Day 0-56): 19% (19%) | Reduction, as compared to control, g of NH3 gas/animal ([2]; 20 g/ton in feed, Day 0-91): 13% | Reduction, as compared to control, g of NH3 gas/lb of HCW ([2]; 20 g/ton in feed, Day 0-91): 17% | Reduction, as compared to control, g of NH3 gas/lb of live BW ([2]; 20 g/ton in feed, Day 0-91): 15%

Source: patent US12677847B2, “Methods and formulations for reducing bovine emissions” (Elanco US Inc., priority 2015, dated 2026)
